From patent US9555038B2, “Heterocycle-substituted tetracyclic compounds and methods of use thereof for the treatment of viral diseases” (Merck Sharp & Dohme Corp., priority 2013, dated 2017)
Read-outs that look alike come from different tables or passages of the source.

What was measured:
[1] = tested on: HCV replicon 1A; assay: Cell-based HCV Replicon Assay A, replicon 1A
Protocol: (§1) To measure cell-based anti-HCV activity of compounds of the present invention, two complimentary assays were employed using various replicons. In the first assay (“Replicon Assay A”), replicon cells were seeded at 2000 cells/well in 384-well 384-well flat bottom tissue culture treated clear bottom plate (Corning 3707) in the presence of the test compound. Various concentrations of test compound, typically in 10 serial dilutions, were added to the assay mixture, with the starting concentration ranging from 333.3 nM to […]. The final concentration of DMSO was 0.5%. Fetal bovine serum was 5%, in the assay media. Cells were harvested on day 3 by removing media and washing the cells with a suitable wash buffer. The cells are lysed with the addition of 1× Qiagen lysis buffer (Cat #1062731). The replicon RNA level was measured using real time PCR (TaqMan® EZ RT-PCR, Applied Biosystems 403028) with the following primers and probes: […]
(§2) Cyclophilin RNA was used as endogenous control and was amplified in the same reaction as NS5B (multiplex PCR). The real-time RT-PCR reactions were run on ABI PRISM 7900HT Sequence Detection System using the following program: 50° C. for 2 minutes, 60° C. for 30 minutes, 95° C. for 5 minutes, 40 cycles of 94° C. for 20 sec, 55° C. for 1 minutes.
(§3) The amount of HCV replicon RNA per cell is quantified using a linear regression curve for a known nanogram (ng) amount of HCV replicon total RNA. This is established by plotting the Cycle Threshold values (Ct) from the Neo probe and primer set versus the log (ng) for each HCV replicon total RNA standard. The amount of HCV RNA for each replicon sample is calculated by taking the sample's Ct value, minus the line intercept, divided by the slope of the line. Similarly, the amount of Cyclophilin mRNA per cell is also quantified using a linear regression curve for a known nanogram (ng) amount of HCV replicon total RNA. Again, this is established by plotting the Cycle Threshold values (Ct) from the Cyclophilin probe and primer set versus the log (ng) for each HCV replicon total RNA standard.
(§4) Data was obtained for various compounds of the present invention using the methods described in the Example above, and is presented in the table immediately below. Data for replicons 1A, 1AY93H and 2B were obtained using Replicon Assay A and data for replicons 1AQ30D and 1B were obtained using Replicon Assay B.

[2] = tested on: HCV replicon 1AY93H; assay: Cell-based HCV Replicon Assay A, replicon 1AY93H
Protocol: as §1, §2, §3, §4

[3] = tested on: HCV replicon 2B; assay: Cell-based HCV Replicon Assay A, replicon 2B
Protocol: as §1, §2, §3, §4

[4] = Hepatitis C virus, read-out: 1A Y93H IC50 (nM), replicon 1AY93H
[5] = Hepatitis C virus, read-out: 2B IC50 (nM), replicon 2B
[6] = read-out: 1A Y93H IC50, replicon 1AY93H

Row | SMILES | IC50 ([1]; Hepatitis C virus) | IC50 [2, 6] | IC50 ([3]; read-out: 2B IC50, replicon 2B) | other results
1 | COC(=O)N[C@H](C(=O)C1CCC[C@H]1c1ncc(-c2ccc3c(c2)cc2n3C(c3cnc(CC(C)C)s3)Oc3cc(-c4cnc([C@@H]5CCCN5C(=O)[C@@H](NC(=O)OC)C(C)C)[nH]4)cc(F)c3-2)[nH]1)C(C)C (mixture of isomers) [Compound 403] | 0.0064 nM |  |  | IC50 [2, 4]: 0.016 nM; IC50 [3, 5]: 0.142 nM
2 | CCN(CC)c1ncc(C2Oc3cc(-c4cnc([C@@H]5CCCN5C(=O)[C@@H](NC(=O)OC)C(C)C)[nH]4)cc(F)c3-c3cc4cc(-c5cnc([C@@H]6CCCN6C(=O)[C@@H](NC(=O)OC)C(C)C)[nH]5)ccc4n32)s1 (mixture of isomers) [Compound 404] | 0.012 nM |  |  | IC50 [2, 4]: 0.0386 nM; IC50 [3, 5]: 0.206 nM
3 | COC(=O)N[C@H](C(=O)N1CCC[C@H]1c1ncc(-c2cc(F)c3c(c2)OC(c2cn4ccnc4s2)n2c-3cc3cc(-c4cnc([C@@H]5CCCN5C(=O)[C@@H](NC(=O)OC)C(C)C)[nH]4)ccc32)[nH]1)C(C)C (mixture of isomers) [Compound 417] | 0.0031 nM |  |  | IC50 [2, 4]: 0.996 nM; IC50 [3, 5]: 0.453 nM
4 | COC(=O)N[C@H](C(=O)N1CCC[C@H]1c1ncc(-c2cc(F)c3c(c2)OC(c2cnc(-c4cnn(C)c4)s2)n2c-3cc3cc(-c4cnc([C@@H]5CCCN5C(=O)[C@@H](NC(=O)OC)C(C)C)[nH]4)ccc32)[nH]1)C(C)C (mixture of isomers) [Compound 425] | 0.0069 nM |  |  | IC50 [2, 4]: 0.534 nM; IC50 [3, 5]: 1.78 nM
5 | COC(=O)N[C@H](C(=O)N1CCC[C@H]1c1ncc(-c2cc(F)c3c(c2)OC(c2cnns2)n2c-3cc3cc(-c4cnc([C@@H]5CCCN5C(=O)[C@@H](NC(=O)OC)C(C)C)[nH]4)ccc32)[nH]1)C(C)C (single isomer, unassigned) [Compound 4] |  | 1.39 nM | 0.98 nM | 
6 | COC(=O)N[C@H](C(=O)N1CCC[C@H]1c1ncc(-c2cc(F)c3c(c2)OC(c2ncc(C4CC4)s2)n2c-3cc3cc(-c4cnc([C@@H]5CCCN5C(=O)[C@@H](NC(=O)OC)C(C)C)[nH]4)ccc32)[nH]1)C(C)C (single isomer, unassigned) [Compound 7] | 0.0014 nM | 4.23 nM | 2.14 nM | 
7 | COC(=O)N[C@H](C(=O)N1CCC[C@H]1c1ncc(-c2cc(F)c3c(c2)OC(c2ncc(C4CC4)s2)n2c-3cc3cc(-c4cnc([C@@H]5CCCN5C(=O)[C@@H](NC(=O)OC)C(C)C)[nH]4)ccc32)[nH]1)C(C)C (single isomer, unassigned) [Compound 8] |  | 0.15 nM | 0.14 nM | IC50 [1]: 0.0017 nM
8 | COC(=O)N[C@H](C(=O)N1CCC[C@H]1c1ncc(-c2cc(F)c3c(c2)OC(c2cnc(C4CC4)s2)n2c-3cc3cc(-c4cnc([C@@H]5CCCN5C(=O)[C@@H](NC(=O)OC)C(C)C)[nH]4)ccc32)[nH]1)C(C)C (single isomer, unassigned) [Compound 9] | 0.0016 nM | 0.86 nM | 1.56 nM | 
9 | COC(=O)N[C@H](C(=O)N1CCC[C@H]1c1ncc(-c2cc(F)c3c(c2)OC(c2nc(C4CC4)cs2)n2c-3cc3cc(-c4cnc([C@@H]5CCCN5C(=O)[C@@H](NC(=O)OC)C(C)C)[nH]4)ccc32)[nH]1)C(C)C (single isomer, unassigned) [Compound 11] |  | 14.4 nM | 6.06 nM | 
10 | COC(=O)N[C@H](C(=O)N1CCC[C@H]1c1ncc(-c2cc(F)c3c(c2)OC(c2nc(C4CC4)cs2)n2c-3cc3cc(-c4cnc([C@@H]5CCCN5C(=O)[C@@H](NC(=O)OC)C(C)C)[nH]4)ccc32)[nH]1)C(C)C (single isomer, unassigned) [Compound 12] |  | 0.18 nM | 2.21 nM | 
11 | COC(=O)N[C@H](C(=O)N1CCC[C@H]1c1ncc(-c2cc(F)c3c(c2)OC(c2cnc(OC)s2)n2c-3cc3cc(-c4cnc([C@@H]5CCCN5C(=O)[C@@H](NC(=O)OC)C(C)C)[nH]4)ccc32)[nH]1)C(C)C (single isomer, unassigned) [Compound 13] | 0.0011 nM | 0.621 nM | 0.446 nM | 
12 | COC(=O)N[C@H](C(=O)N1CCC[C@H]1c1ncc(-c2cc(F)c3c(c2)OC(c2cnc(C(F)F)s2)n2c-3cc3cc(-c4cnc([C@@H]5CCCN5C(=O)[C@@H](NC(=O)OC)C(C)C)[nH]4)ccc32)[nH]1)C(C)C (single isomer, unassigned) [Compound 19] |  | 1.24 nM | 0.933 nM | 
13 | COC(=O)N[C@H](C(=O)N1CCC[C@H]1c1ncc(-c2cc(F)c3c(c2)OC(c2cnc(C4CC4)s2)n2c-3c(F)c3cc(-c4cnc([C@@H]5CCCN5C(=O)[C@@H](NC(=O)OC)C(C)C)[nH]4)ccc32)[nH]1)C(C)C (single isomer, unassigned) [Compound 22] |  | 0.86 nM | 0.44 nM | 
14 | COC(=O)N[C@H](C(=O)N1CCC[C@H]1c1ncc(-c2cc(F)c3c(c2)OC(c2cnc(C4CCCC4)s2)n2c-3cc3cc(-c4cnc([C@@H]5CCCN5C(=O)[C@@H](NC(=O)OC)C(C)C)[nH]4)ccc32)[nH]1)C(C)C (single isomer, unassigned) [Compound 26] |  | 0.126 nM | 0.449 nM | 
15 | COC(=O)NC(C(=O)N1CCC[C@H]1c1ncc(-c2ccc3c(c2)cc2n3C(c3cnc(C)s3)Oc3cc(-c4cnc([C@@H]5CCCN5C(=O)[C@@H](NC(=O)OC)C(C)C)[nH]4)cc(F)c3-2)[nH]1)C1C[C@@H](C)O[C@@H](C)C1 (single isomer, unassigned) [Compound 29] | 0.002 nM | 1.09 nM | 0.192 nM | 
16 | CCc1ncc(C2Oc3cc(-c4cnc([C@@H]5CCCN5C(=O)[C@@H](NC(=O)OC)C(C)C)[nH]4)cc(F)c3-c3cc4cc(-c5cnc([C@@H]6CCCN6C(=O)C(NC(=O)OC)C6CCOC(C)(C)C6)[nH]5)ccc4n32)s1 (single isomer, unassigned) [Compound 38] |  | 0.204 nM |  | IC50 [1]: 0.0029 nM
17 | COC(=O)NC(C(=O)N1[C@@H]2C[C@@H]2C[C@H]1c1ncc(-c2ccc3c(c2)cc2n3C(c3cnc(C(C)C)s3)Oc3cc(-c4cnc([C@@H]5CCCN5C(=O)[C@@H](NC(=O)OC)C(C)C)[nH]4)cc(F)c3-2)[nH]1)C1CCOC(C)(C)C1 (single isomer, unassigned) [Compound 69] |  | 2.87 nM |  | IC50 [1]: 0.0424 nM
18 | COC(=O)NC(C(=O)N1CCC[C@H]1c1ncc(-c2ccc3c(c2)cc2n3C(c3cnc(-c4ccc(F)cc4)s3)Oc3cc(-c4cnc([C@@H]5CCCN5C(=O)[C@@H](NC(=O)OC)C(C)C)[nH]4)cc(F)c3-2)[nH]1)C1C[C@@H](C)O[C@@H](C)C1 (single isomer, unassigned) [Compound 79] |  | 0.0041 nM | 0.002 nM | 
19 | COC(=O)N[C@H](C(=O)N1CCC[C@H]1c1ncc(-c2cc(F)c3c(c2)OC(c2cnc(C(C)C)s2)n2c-3cc3cc(-c4cnc([C@@H]5CCCN5C(=O)[C@@H](NC(=O)OC)C(C)C)[nH]4)ccc32)[nH]1)C(C)C (single isomer, unassigned) [Compound 85] | 0.0014 nM |  | 1.08 nM | 
20 | CCc1nnc(C2Oc3cc(-c4cnc([C@@H]5CCCN5C(=O)[C@@H](NC(=O)OC)C(C)C)[nH]4)cc(F)c3-c3cc4cc(-c5cnc([C@@H]6CCCN6C(=O)C(NC(=O)OC)C(C)C)[nH]5)ccc4n32)s1 (single isomer, unassigned) [Compound 115] |  |  |  | IC50 [1]: 0.008 nM; IC50 [2, 4]: 0.79 nM
21 | COC(=O)NC(C(=O)N1[C@@H]2C[C@@H]2C[C@H]1c1ncc(-c2ccc3c(c2)cc2n3C(c3cnc(C4CC4)s3)Oc3cc(-c4cnc([C@@H]5CCCN5C(=O)[C@@H](NC(=O)OC)C(C)C)[nH]4)cc(F)c3-2)[nH]1)C1CCOC(C)(C)C1 (single isomer, unassigned) [Compound 314] |  |  | 0.002 nM | IC50 [1]: 0.0026 nM
22 | COC(=O)N[C@H](C(=O)N1CCC[C@H]1c1ncc(-c2cc(F)c3c(c2)OC(c2sc(C)nc2C(F)(F)F)n2c-3cc3cc(-c4cnc([C@@H]5CCCN5C(=O)[C@@H](NC(=O)OC)C(C)C)[nH]4)ccc32)[nH]1)C(C)C (single isomer, unassigned) [Compound 427] | 0.0024 nM |  |  | 
23 | CCC(CC)c1ncc(C2Oc3cc(-c4cnc([C@@H]5CCCN5C(=O)[C@@H](NC(=O)OC)C(C)C)[nH]4)cc(F)c3-c3cc4cc(-c5cnc([C@@H]6CCCN6C(=O)[C@@H](NC(=O)OC)C(C)C)[nH]5)ccc4n32)s1 (single isomer, unassigned) [Compound 429] |  |  |  | IC50 [1]: 0.0012 nM
24 | COC(=O)N[C@H](C(=O)N1CCC[C@H]1c1ncc(-c2cc(F)c3c(c2)OC(c2cnc(CC(C)(C)C)s2)n2c-3cc3cc(-c4cnc([C@@H]5CCCN5C(=O)[C@@H](NC(=O)OC)C(C)C)[nH]4)ccc32)[nH]1)C(C)C (single isomer, unassigned) [Compound 523] |  |  |  | IC50 [1]: 0.0012 nM; IC50 ([2]; replicon 1AY93H, read-out: 1A Y93H IC50): 0.13 nM
